Here are results for six compounds from patent US11274314B2, “Herbicide safener combinations for acetyl co-enzyme a carboxylase herbicide resistant plants” (priority 2016, dated 2022).

For data set [1], the system named is single-gene (AF28, AF26, AF10) and two-gene (AB17, AB157, BD4, AD91) wheat lines. Put plainly: Field crop safety trial with and without safener.
Procedure: During the 2014-2015 growing season, a field crop safety trial was performed to assess these lines for relative levels of resistance and performance under two application timings, applied with and without the safener cloquintocet-mexyl.
Determine relative levels of resistance between two-gene lines and single-gene lines. Determine which application timing (early or late spring) provided the highest crop safety.
One quizalofop susceptible line (Hatcher), four two-gene breeding lines (CO14A006 [AB17], CO14A041[AB157], CO14A075 [BD4], CO14A065 [AD91) and three one-gene parent lines (AF28, AF26, and AF10) were compared. A split-split plot design was used in which quizalofop p-ethyl was applied at 92.5 g ai ha^−1 with 1% MSO corresponding to the highest likely label application rate on March 31st at the tillering growth stage, and on May 2nd at the jointing growth stage. Cloquintocet safener (10 g ai/ha) was included in the split-split plot design. In the analysis, visual injury ratings and height were assessed one month before harvest, and grain yield in grams per plot was also used as a response factor. The SAS statistical package and proc mixed were used for analysis with a tukey-adjusted p-value of 0.05 as the cutoff value. The analysis was sliced by the cloquintocet factor, and comparisons of timing were made within lines.
Data set [2] deals with ACCase, B genome mutation (alanine to valine at position 2004). The data set can be described thus: In-vitro ACCase enzyme assay, B genome SNP accession. The data set is classed as biochemical, wheat. The procedure:
(§1) Dose response. A dose response study was completed with 11, 23, 46, 92, and 184 g quizalofop ha^−1. Seven DAT the tops of plants were cut off above the newest above-ground growing point. Binomial evaluation of plant survival was performed 28 DAT. Differences were uncovered in the whole plant sensitivity to increasing application rates of quizalofop. […] Resistant to susceptible ratios for this experiment ranged from 1.6 to 7.5 based on survival/death of the plants. Cross-resistance. A cross-resistance study was conducted within the ACCase herbicide mode of action using herbicides normally lethal to wheat. Clethodim, sethoxydim, and fluazifop were used at rates of 65, 264, and 361 g ai ha^−1, plus a treatment of clethodim and 10.5 g ai ha^−1 quizalofop. Seven DAT the tops of plants were cut off above the newest above-ground growing point. Binomial evaluation of plant survival was performed 28 DAT. Tolerance of quizalofop mutants to clethodim and sethoxydim was low (Table 1). […] The experiment included four accessions which included a representative from the three mutations detected and non-mutagenized wheat. […] Calculated at the 125 level, the resistant to susceptible value for the A genome was 4.57, the B genome was 3.57 and the D genome was 10.86.

Data set [3] has as its system quizalofop-tolerant winter wheat accessions vs non-mutant Hatcher wheat. Put plainly: Visual evaluation of quizalofop injury on quizalofop-tolerant accessions. The format is in vivo, Triticum aestivum L. The conditions noted are these: nearly all of 18 quizalofop-tolerant accessions; 21.05 g ai ha^−1; 28 DAT; compared with non-mutant Hatcher. On the procedure:
Plants were screened for visual injury, whole-plant quizalofop tolerance differences, cross-tolerance, and evaluated genotypically and enzymatically.
Visual evaluation. 18 quizalofop-tolerant accessions were treated with 21.05 g ai ha^−1 quizalofop, a discriminating dose based on previous studies. Plants were evaluated 28 days after treatment (DAT) for visible injury to quizalofop on a scale of 0 to 100%, with 0 being no injury and 100 being complete desiccation. […] The accessions had few completely dead plants, with the exception of the one accession not different than the background.

The subject of data set [4] is ACCase, D genome mutation (alanine to valine at position 2004). The data set can be described thus: In-vitro ACCase enzyme assay, D genome SNP accession. The format is biochemical, wheat. The following applies: for ACCase tolerance to quizalofop vs background: D genome SNP. On the procedure: as §1, with “1). The presence of any cross tolerance presents evidence that stacking resistant ACCase copies into a single plant could lead to resistance to additional herbicides. At this stage only a third of the total ACCase in the plant would have a mutation and contain tolerance to ACCase inhibitors if the mutation is target-site-based. DNA sequencing. DNA was collected from 26 quizalofop-tolerant phenotypes. Genome-specific primers were developed to amplify sequences from the A, B, and D ancestral wheat genomes. Sequenced results were compared to previously cloned non-mutant wheat sequences to determine any nucleotide substitutions present. […] This mutation on the A genome was found in eight accessions, on the B genome in nine accessions, and on the D genome in nine accessions. No accession had more than one of these SNPs.” for “1).”

The test system of data set [5] is ACCase, A genome mutation (alanine to valine at position 2004). The data set can be described thus: In-vitro ACCase enzyme assay, A genome SNP accession. The format is biochemical, wheat. On the procedure: as §1
Data set [6] has as its system ACCase of non-mutagenized winter wheat. Put plainly: In-vitro ACCase enzyme assay, non-mutagenized wheat. The format is biochemical. The following applies: non-mutagenized winter wheat vs mutant accessions; 0.1-100 μM. The procedure:
as §1

Data set [7] deals with quizalofop tolerant mutant wheat accessions and non-mutant check. Put plainly: Cross-resistance study within the ACCase herbicide mode of action, plant survival. The format is in vivo, Triticum aestivum L. The conditions noted are these: for survival: 28 DAT, clethodim 65, sethoxydim 264, fluazifop 361 g ai ha^−1, clethodim + 10.5 g ai ha^−1 quizalofop. On the procedure:
Dose response. A dose response study was completed with 11, 23, 46, 92, and 184 g quizalofop ha^−1. Seven DAT the tops of plants were cut off above the newest above-ground growing point. Binomial evaluation of plant survival was performed 28 DAT. Differences were uncovered in the whole plant sensitivity to increasing application rates of quizalofop. […] Resistant to susceptible ratios for this experiment ranged from 1.6 to 7.5 based on survival/death of the plants. Cross-resistance. A cross-resistance study was conducted within the ACCase herbicide mode of action using herbicides normally lethal to wheat. Clethodim, sethoxydim, and fluazifop were used at rates of 65, 264, and 361 g ai ha^−1, plus a treatment of clethodim and 10.5 g ai ha^−1 quizalofop. Seven DAT the tops of plants were cut off above the newest above-ground growing point. Binomial evaluation of plant survival was performed 28 DAT. Tolerance of quizalofop mutants to clethodim and sethoxydim was low (Table 1). The presence of any cross tolerance presents evidence that stacking resistant ACCase copies into a single plant could lead to resistance to additional herbicides. At this stage only a third of the total ACCase in the plant would have a mutation and contain tolerance to ACCase inhibitors if the mutation is target-site-based. DNA sequencing. DNA was collected from 26 quizalofop-tolerant phenotypes. Genome-specific primers were developed to amplify sequences from the A, B, and D ancestral wheat genomes. Sequenced results were compared to previously cloned non-mutant wheat sequences to determine any nucleotide substitutions present. […] This mutation on the A genome was found in eight accessions, on the B genome in nine accessions, and on the D genome in nine accessions. No accession had more than one of these SNPs. The mutation was a C to T substitution resulting in an alanine to valine change (FIG. 7). Each accession with higher survival than the background contained one of these SNPs. Based on the chromatograph patterns, the majority these SNPs are also believed to be homozygous in the plant. ACCase enzyme characterization. An in-vitro enzyme assay was conducted to observe ACCase in conjunction with quizalofop directly to determine if the presence of ACCase mutations decreases the ability of herbicides to inhibit ACCase activity. Four quizalofop concentrations of 0.1, 1, 10, and 100 μM were included in the assay along with a non-treated treatment. The experiment included four accessions which included a representative from the three mutations detected and non-mutagenized wheat. […] Calculated at the 125 level, the resistant to susceptible value for the A genome was 4.57, the B genome was 3.57 and the D genome was 10.86.

Data set [8] has as its system single copy varieties AF28-A, AF26-B, AF10-D. Put plainly: Safener potentiation of ACCase herbicide resistance in single copy wheat varieties. The data set is classed as in vivo. The conditions noted are these: safener combined with ACCase herbicide; single copy varieties vs multiple copy or multiple genome lines.

For `CCOC(=O)[C@@H](C)Oc1ccc(Oc2cnc3cc(Cl)ccc3n2)cc1` [quizalofop p-ethyl], the “crop injury (reduced height, reduced yield, or increased injury rating)” value in data set [1] (May (jointing) compared to March (tillering) treatment timing) is on record as “consistently higher crop injury”. In addition, the crop safety result in data set [1] (all two-gene lines, 92.5 g ai ha^−1, no safener, vs single-gene lines) is “much higher levels of crop safety”. Further, the “crop injury compared to the untreated control” value in data set [1] (single-gene line AF28, 92.5 g ai ha^−1, no safener) is recorded as “only showed injury with the May treatment timing”; in data set [1] (single-gene lines, 92.5 g ai ha^−1 with 1% MSO, no safener, March and May timings) it was “significant injury”. Further, the crop injury result was “no crop injury for any treatment combination” in data set [1] (two-gene line AD91, 92.5 g ai ha^−1, with or without safener, March or May); “crop injury in the May treatment timing” in data set [1] (two-gene lines AB157 and AB17, 92.5 g ai ha^−1, no safener).

`CC(Oc1ccc(Oc2cnc3cc(Cl)ccc3n2)cc1)C(=O)O` (centres unmarked) [quizalofop, (.+−.)-2-[4-[(6-chloro-2-quinoxalinyl)-oxy]phenoxy]propanoic acid]: the “ACCase tolerance to quizalofop vs background” value in data set [2] (B genome SNP, 10 μM quizalofop) is recorded as “higher than background levels of tolerance”; in data set [4] (10 μM quizalofop) it was “higher than background levels of tolerance”; in data set [4] (100 μM quizalofop) it was “higher than background tolerance”; in data set [5] (A genome SNP, 100 μM quizalofop), “higher than background tolerance”. For the same compound, the “resistant to susceptible value, calculated at the 125 level” value in data set [2] (B genome, vs non-mutagenized wheat) is on record as 3.57; in data set [4] (D genome, vs non-mutagenized wheat) it was 10.86; in data set [5] (A genome, vs non-mutagenized wheat), 4.57. Moreover, the “visible injury to quizalofop on a scale of 0 to 100%” value in data set [3] was “more tolerant to quizalofop than non-mutant Hatcher wheat”. The “ACCase sensitivity to quizalofop” value in data set [6] is “greater sensitivity”.

Consider `CCCC(=NOCC)C1=C(O)CC(CC(C)SCC)CC1=O` (centres unmarked) [Sethoxydin, 2-[1-(ethoxyimino)-butyl]-5-[2-(ethylthio)propyl]-3-hydroxy-2-cylohexen-1-one], for which the survival in data set [7] (Accession 0 (non-mutant check)), in data set [7] (Accession 1), in data set [7] (Accession 2), in data set [7] (Accession 3), in data set [7] (Accession 4) and in data set [7] (Accession 5) was 0% throughout. Moreover, the survival in data set [7] (Accession 6) is on record as 0%; in data set [7] (Accession 7) it was 0%; in data set [7] (Accession 8), 0%; in data set [7] (Accession 9) it was 0%; in data set [7] (Accession 10) it was 0%; in data set [7] (Accession 11) it was 8%. The survival in data set [7] (Accession 12) was determined as 8%; in data set [7] (Accession 13) it was 0%; in data set [7] (Accession 14), 0%; in data set [7] (Accession 15) it was 0%; in data set [7] (Accession 16) it was 0%; in data set [7] (Accession 17) it was 0%. Further, the “Tolerance of quizalofop mutants” value in data set [7] (summary of Table 1) was “low”.

Take `CCSC(C)CC1CC(=O)C(/C(CC)=N/OC/C=C/Cl)=C(O)C1` (centres unmarked) [Clethodim, (E,E)-(.+−.)-2-[1-[[(3-chloro-2-propenyl)oxy]imino]propyl]-5-[2-(ethylth-io)propyl]-3-hydroxy-2-cyclohexen-1-one]: the survival in data set [7] (Accession 0 (non-mutant check)) is on record as 0%; in data set [7] (Accession 1), 10%; in data set [7] (Accession 2), 0%; in data set [7] (Accession 3) it was 0%; in data set [7] (Accession 4) it was 0%; in data set [7] (Accession 5), 0%. The survival in data set [7] (Accession 6) turned out to be 0%; in data set [7] (Accession 7), 0%; in data set [7] (Accession 8) it was 25%; in data set [7] (Accession 9), 17%; in data set [7] (Accession 10), 0%; in data set [7] (Accession 11), 0%. Besides, the survival came to 17% in data set [7] (Accession 12); 0% in data set [7] (Accession 13); 0% in data set [7] (Accession 14); 0% in data set [7] (Accession 15); 0% in data set [7] (Accession 16); 0% in data set [7] (Accession 17).

Consider `O=C(O)COc1ccc(Cl)c2cccnc12` [cloquintocet acid], for which the “potentiation of resistance to acetyl-CoA carboxylase herbicides” value in data set [8] is listed as “just as effectively resistance as the multiple copy lines”.

`CC(Oc1ccc(Oc2ccc(C(F)(F)F)cn2)cc1)C(=O)O` (centres unmarked) [Fluazifop, (.+−.)-2-[4-[[5-(trifluoromethyl)-2-pyridinyl]oxy]phenoxy]propanoic acid]: the survival in data set [7] (Accession 0 (non-mutant check)), in data set [7] (Accession 1), in data set [7] (Accession 2), in data set [7] (Accession 3), in data set [7] (Accession 4) and in data set [7] (Accession 5) was 0% throughout. Besides, the survival in data set [7] (Accession 6), in data set [7] (Accession 7), in data set [7] (Accession 8), in data set [7] (Accession 9), in data set [7] (Accession 10) and in data set [7] (Accession 11) was 0% in each case. In addition, the survival in data set [7] (Accession 12), in data set [7] (Accession 13), in data set [7] (Accession 14), in data set [7] (Accession 15), in data set [7] (Accession 16) and in data set [7] (Accession 17) was 0% in each case.
